Measured values: publication PMC6277767, “Broad and Region-Specific Impacts of the Synthetic Cannabinoid CP 55,940 in Adolescent and Adult Female Mouse Brains” (Frontiers in Molecular Neuroscience, 2018)

Tested on: CD1 female mouse brain lipidome
Assay: Brain-region lipid levels (HPLC/MS/MS lipidomics) 2 h after single i.p. 3 mg/kg CP 55,940 vs vehicle
Type: in vivo
Conditions: cerebellum, 3 mg/kg CP 55,940
Experimental: The Bloomington Institutional Animal Care and Use Committee of Indiana University reviewed and approved the animal procedures. Female mice from the CD1 strain were utilized to match our study examining THC’s effects on the brain lipidome ([Leishman et al., 2018]). Mice were given a single i.p. injection of either 3 mg/kg CP or 1:1:18 cremophor:ethanol:saline vehicle (please refer to the section “3 mg/kg CP Is Relevant for Synthetic Cannabinoid Abuse and Has Stronger Effects on the Female Mouse Brain Lipidome During Adolescence” for a justification of dose and use of female mice). Three different age groups were given injections: PND 35 and PND 50 adolescents, and adult mice (PND 113). At least eight mice in each age group received CP and at least eight received vehicle. Matching the THC study time course ([Leishman et al., 2018]), mice were sacrificed via rapid decapitation 2 h after injection. Brains were immediately removed and flash-frozen in liquid nitrogen, and then stored at -80°C until dissections were performed. Brains were dissected on an ice-cold dissection plate into the following regions: STR, HIPP, CER, THAL, CTX, HYP, MID, and STEM. These abbreviations for these brain areas will be used exclusively when discussing the results generated by these specific dissections. Each dissected area was immediately placed in liquid nitrogen and then stored at -80°C until used for lipid extraction.
Tissue extracts were performed as previously described ([Bradshaw et al., 2006]; [Stuart et al., 2013]; [Raboune et al., 2014]; [Leishman et al., 2016a],[b], [2017], [2018]). First, samples were shock frozen in liquid nitrogen, weighed, and transferred to a centrifuge tube. The mass of the largest sample was multiplied by 50 to determine how many milliliters of HPLC-grade methanol (Fisher, Fair Lawn, NJ, United States) to add. Then, samples were spiked with 500 pmol deuterium-labeled NAGly (d8NAGly; Cayman Chemical, Ann Arbor, MI, United States). Samples were placed on ice in darkness for 2 h then individually homogenized and centrifuged at 19,000 × g for 20 min at 20°C. Supernatants were diluted with HPLC water (purified in house) to make a solution of 75% water, 25% supernatant. Lipids were partially purified on C18 solid phase extraction columns (Agilent, Palo Alto, CA, United States). A series of four elutions with 1.5 mL of 60%, 75%, 85%, and 100% methanol were collected ([Stuart et al., 2013]; [Leishman et al., 2016a],[b], [2018]).
As previously described ([Bradshaw et al., 2006]; [Tan et al., 2006]; [Smoum et al., 2010]; [Stuart et al., 2013]; [Tortoriello et al., 2013]; [Raboune et al., 2014]; [Leishman et al., 2016a],[b], [2017], [2018]), samples were analyzed using an Applied Biosystems API 3000 triple quadrupole mass spectrometer with electrospray ionization (Foster City, CA, United States). Using an Agilent XDB-C18 reversed phase analytical column and optimized mobile phase gradients, 20 μL from each elution were chromatographed. Two Shimadzu 10ADvp pumps (Columbia, MD, United States) provided the pressure for gradient elution. Mobile phase A: 20% methanol, 80% water (v/v) and 1 mM ammonium acetate (Sigma, St. Louis, MO, United States). Mobile phase B: 100% methanol, 1 mM ammonium acetate. Every method run began with 0% mobile phase B, reached 100% mobile phase B flowing at 0.2 mL/min, and gradually returned to 0% mobile phase B.
This screening library will be referred to as the lipidome when discussing data from this study. HPLC/MS/MS data were analyzed using Analyst software (Applied Biosystems) ([Bradshaw et al., 2006]; [Tan et al., 2006]; [Stuart et al., 2013]; [Tortoriello et al., 2013]; [Raboune et al., 2014]; [Leishman et al., 2016a],[b], [2017], [2018]). Chromatograms (Supplementary Figure 3) were generated by determining the retention time of analytes from the analytical column with a [M-1] or [M+1] parent peak and a fragmentation peak corresponding to the programmed values. […]

CCCCCCC(C)(C)c1ccc([C@@H]2C[C@H](O)CC[C@H]2CCCO)c(O)c1 [CP 55,940]
PGE2: Magnitude (x Veh level) (adult): 0.70 x Veh level
PGF2α: Direction (relative to Veh) (adult): ↓
PGF2α: Magnitude (x Veh level) (adult): 0.67 x Veh level
phosphoLEA: Direction (relative to Veh) (adult): ↓
phosphoLEA: Magnitude (x Veh level) (adult): 0.71 x Veh level
2-arachidonoyl glycerol: Direction (relative to Veh) (PND 35): ↓
2-arachidonoyl glycerol: Magnitude (x Veh level) (PND 35): 0.80 x Veh level
2-linoleoyl glycerol: Direction (relative to Veh) (PND 35): ↓
2-linoleoyl glycerol: Magnitude (x Veh level) (PND 35): 0.75 x Veh level
6-ketoPGF1α: Magnitude (x Veh level) (PND 35): 0.61 x Veh level
Arachidonic acid: Direction (relative to Veh) (PND 35): ↓
Arachidonic acid: Magnitude (x Veh level) (PND 35): 0.92 x Veh level
N-arachidonoyl GABA: Direction (relative to Veh) (PND 35): ↓
N-arachidonoyl GABA: Magnitude (x Veh level) (PND 35): 0.72 x Veh level
N-arachidonoyl alanine: Direction (relative to Veh) (PND 35): ↓
N-arachidonoyl alanine: Magnitude (x Veh level) (PND 35): 0.71 x Veh level
N-arachidonoyl glycine: Direction (relative to Veh) (PND 35): ↓
N-arachidonoyl glycine: Magnitude (x Veh level) (PND 35): 0.89 x Veh level
N-arachidonoyl methionine: Direction (relative to Veh) (PND 35): ↓
N-arachidonoyl methionine: Magnitude (x Veh level) (PND 35): 0.63 x Veh level
N-arachidonoyl serine: Direction (relative to Veh) (PND 35): ↓
N-arachidonoyl serine: Magnitude (x Veh level) (PND 35): 0.74 x Veh level
N-arachidonoyl taurine: Direction (relative to Veh) (PND 35): ↓
N-arachidonoyl taurine: Magnitude (x Veh level) (PND 35): 0.87 x Veh level
N-arachidonoyl tyrosine: Direction (relative to Veh) (PND 35): ↓
N-arachidonoyl tyrosine: Magnitude (x Veh level) (PND 35): 0.70 x Veh level
N-docosahexaenoyl GABA: Direction (relative to Veh) (PND 35): ↓
N-docosahexaenoyl GABA: Magnitude (x Veh level) (PND 35): 0.81 x Veh level
N-docosahexaenoyl alanine: Direction (relative to Veh) (PND 35): ↓
N-docosahexaenoyl alanine: Magnitude (x Veh level) (PND 35): 0.72 x Veh level
N-docosahexaenoyl glycine: Direction (relative to Veh) (PND 35): ↓
N-docosahexaenoyl glycine: Magnitude (x Veh level) (PND 35): 0.92 x Veh level
N-docosahexaenoyl leucine: Direction (relative to Veh) (PND 35): ↑
N-docosahexaenoyl leucine: Magnitude (x Veh level) (PND 35): 1.44 x Veh level
N-docosahexaenoyl serine: Direction (relative to Veh) (PND 35): ↓
N-docosahexaenoyl serine: Magnitude (x Veh level) (PND 35): 0.72 x Veh level
N-docosahexaenoyl tyrosine: Direction (relative to Veh) (PND 35): ↓
N-docosahexaenoyl tyrosine: Magnitude (x Veh level) (PND 35): 0.84 x Veh level
N-linoleoyl glycine: Direction (relative to Veh) (PND 35): ↓
N-linoleoyl glycine: Magnitude (x Veh level) (PND 35): 0.89 x Veh level
N-linoleoyl leucine: Direction (relative to Veh) (PND 35): ↑
N-linoleoyl leucine: Magnitude (x Veh level) (PND 35): 1.29 x Veh level
N-linoleoyl phenylalanine: Direction (relative to Veh) (PND 35): ↑
N-linoleoyl phenylalanine: Magnitude (x Veh level) (PND 35): 1.28 x Veh level
N-oleoyl GABA: Direction (relative to Veh) (PND 35): ↓
N-oleoyl GABA: Magnitude (x Veh level) (PND 35): 0.83 x Veh level
N-oleoyl ethanolamine: Direction (relative to Veh) (PND 35): ↓
N-oleoyl ethanolamine: Magnitude (x Veh level) (PND 35): 0.81 x Veh level
N-oleoyl leucine: Direction (relative to Veh) (PND 35): ↑
N-oleoyl leucine: Magnitude (x Veh level) (PND 35): 1.25 x Veh level
N-oleoyl phenylalanine: Direction (relative to Veh) (PND 35): ↑
